Laboratory results reported in patent US10765654B2, “Methods and compounds for treating cancer” (University of Vermont and State Agricultural College, priority 2011, dated 2020).
Peptide text beside a SMILES is read from it.

How the values were obtained:
Format in all cases: cell-based, human
ASPA in OG33 cells [1] = test: Western blot of ASPA expression; details: NAA and NAAG treatment (not shown)
Description: SDS-PAGE (25 μg protein from whole cell lysates) and western blotting were performed as previously described (Lluri et al. 2008 Exp Cell Res 314:11-24). Cytosol and nuclear fractions were isolated according to standard protocols. Antibodies: rabbit anti-mouse ASPA (2,000×), (Madhavarao et al. 2004 Comp Neurol 472:318-29) rabbit anti-human ASPA (5,000×; GTX1338; GeneTex, Irvine, Calif.), goat anti-human actin (1,000×, sc-1616, Santa Cruz Biotechnology, Santa Cruz, Calif.), rabbit anti-human GAPDH (5,000×, sc-25778, Santa Cruz Biotechnology, Santa Cruz, Calif.), mouse anti-human histone H1 (250×, sc-8030; Santa Cruz Biotechnology, Santa Cruz, Calif.). Species-specific HRP—(3,000×) conjugated secondary antibodies were obtained from Jackson ImmunoResearch (West Grove, Pa.). Immunocomplexes were visualized by enhanced chemiluminescence (PerkinElmer Life Sciences; Boston, Mass.) and densitometry performed using Quantity One software (Bio-Rad; Hercules, Calif.).
SDS-PAGE (25 μg protein from whole cell lysates) and western blotting were performed as previously described in Example 1.

[2] = system: OG33 oligodendroglioma stem cells; test: Cell cycle profile by propidium iodide staining and flow cytometry; details: 100 μM NAA or 10 μM NAAG
Description: (§1) Cell cycle profiles were visualized by propidium iodide (PI) staining as previously described (Perez-Martinez & Jaworski (2005) J Neurosci 25:4917-29). OG35, OG33 and mouse neural stem cells were grown in stem cell medium (SCM; DMEM/F12, B27, 20 ng/ml ea bFGF & EGF) while the oligodendrocyte progenitor cell line, Oli-neu (Jung et al. (1995) Eur J Neurosci 7:1245-65) was grown in Sato's medium (DMEM supplemented with 100 μg/ml apotransferrin, 5 μg/ml insulin, 60 nM triiodothyronine, 30 nM sodium selenite, 100 μM putrescine, 1% horse serum, and 25 μg/ml G418). […] after 0.25% (v/v) GTA treatment, cells were trypsinized, recovered by centrifugation, re-suspended (10^6 cells/ml) in a low-salt PI solution ([…] polyethylene glycol PEG 8000, […], 180 U/ml RNase A, 0.1% Triton X-100, and 4 mM sodium citrate), and incubated at 37° C. for 20 minutes. After addition of an equal volume of high-salt PI solution ([…] polyethylene glycol PEG 8000, […], 180 U/ml RNase A, 0.1% Triton X-100, and 400 mM NaCl) and incubation at 4° C. for 1 hour, cell cycle profiles were recorded by flow cytometry (BD LSR 11 Flow Cytometer, BD Biosciences; Franklin Lakes, N.J.).

[3] = system: OG35 oligodendroglioma stem cells; test: Growth dynamics, trypan blue exclusion and manual counting; details: 100 μM NAA or 10 μM NAAG; stem cell medium (SCM) and differentiation medium (DM); later time points up to 5 days
Description: (§2) Stem cell spheres from two oligodendroglioma stem cell lines (OG33 and OG35) were plated (at 10,000 cells per well of a 24-well plate) in the absence or presence of 100 μM N-acetylaspartate (NAA) or 10 μM N-acetylaspartylglutamate (NAAG) in stem cell medium (SCM) containing DMEM/F12 (Gibco/Life Technologies, Grand Island, N.Y.), B27 supplement (Gibco/Life Technologies, Grand Island, N.Y.), and 20 ng/ml each basic fibroblast growth factor (bFGF) and epidermal growth factor (EGF), or differentiation medium (DM) containing DMEM, 10% FBS. Medium, with fresh drug, was replenished every 48 hours. Growth dynamics were assessed using trypan blue exclusion and manual counting 1, 3, and 5 days after plating.

[4] = system: OG33 oligodendroglioma stem cells; test: as above; details: 100 μM NAA or 10 μM NAAG; SCM and DM; later time points up to 5 days
Description: as §2

ASPA in OG35 cells = test: Immunocytochemistry of ASPA localization after NAA or NAAG; details: 100 μM NAA or 10 μM NAAG; 5 days in DM; OG35 (primarily nuclear)
Description: (§3) Immunocytochemistry was performed as described (Perez-Martinez & Jaworski (2005) J Neurosci 25:4917-29). Briefly, OG33 and OG35 cells were plated into differentiaion medium (DMEM, 10% FBS), fixed with 2% paraformaldehyde, and ASPA expression localized immunocytochemically using rabbit anti-mouse ASPA (1,500×) (Madhavarao et al., 2004 Comp Neurol 472:318-29) and Cy-3 conjugated secondary antibody (500×; Jackson ImmunoResearch, West Grove, Pa.).

ASPA in OG33 cells [5] = test: as above; details: 100 μM NAA or 10 μM NAAG; 5 days in DM; OG33 (cytosolic)
Description: as §3

[6] = system: OG35 oligodendroglioma stem cells; test: Cell cycle profile by propidium iodide staining and flow cytometry; details: 100 μM NAA or 10 μM NAAG
Description: as §1

Compound | Expression of novel 26 kDa ASPA species (ASPA in OG33 cells [1]) | OG33 cell number by flow cytometric cell cycle analysis [2] | OG35 cell growth (cell number, manual counting) [3] | OG33 cell growth (cell number, manual counting) [4] | ASPA spatial localization (ASPA in OG35 cells) | ASPA spatial localization (ASPA in OG33 cells [5]) | OG35 growth by flow cytometric cell cycle analysis (cells in G2/M and G0/G1) [6]
CC(=O)N[C@@H](CC(=O)O)C(=O)O [NAA, N-acetylaspartate] | induced | no significant change | increased in SCM and DM | only increased in SCM | little effect | little effect | –
CC(=O)N[C@@H](CC(=O)O)C(=O)N[C@@H](CCC(=O)O)C(=O)O [NAAG, N-acetylaspartylglutamate] (Ac-Asp-Glu-OH) | induced | no significant change | increased in SCM and DM | only increased in SCM | little effect | little effect | promoted OG35 growth
